Source: patent US6706509B2, “Oncoprotein protein kinase” (The Regents of the University of California, priority 1993, dated 2004)

How the values were obtained:
MEK = MEK assay with kinase-defective ERK1 substrate, Jurkat cells and mouse thymocytes; assay type: cell-based, human; mouse
Method: JNK is a proline-directed protein kinase activated by extracellular stimuli (Hibi, et al., supra, 1993). In that respect, it resembles the ERK1 and 2 MAP kinases (Boulton, et al., Cell, 65:663-675, 1991). Since ERK1 and 2 appear to be involved in induction of c-fos (Gille, et al., Nature, 358:414-417, 1992; Marais, et al., Cell, 73:381-393, 1993) and could thereby participate in T cell activation, their regulation was examined. ERK1 and ERK2 activities were measured in both Jurkat and mouse thymocytes using an immunecomplex kinase assay and myelin basic protein (MBP) as a substrate. Recombinant, kinase-defective ERK1 was also used a substrate for assaying MEK, the protein kinase responsible for activation of ERK1 and 2 (Crews, et al., Science, 258:478-480, 1992).
WCE (5 μg) of Jurkat (FIG. 15, panel A) or mouse thymocytes (panel C) were incubated with 1 μg of kinase-defective ERK1 in kinase buffer containing γ-^32P-ATP for 20 minutes. The phosphorylated proteins were separated by SDS-PAGE and the band corresponding to the mutant ERK1 is indicated. WCE (20 μg) of Jurkat (panel B) or mouse thymocytes (panel C) that were treated as described above were immunoprecipitated with anti-ERK antibodies (a gift from Dr. M. Weber). The immune complexes were washed and incubated in kinase buffer containing γ-^32P-ATP and 2 μg MBP for 15 minutes at 30° C. The phosphorylated proteins were separated by SDS-PAGE. The band corresponding to phosphorylated MBP is indicated.

JNK = test: Solid-state phosphorylation assay of JNK in FR3T3, CV-1 and PC12 cells; assay type: cell-based; settings: for JNK activity, effect of A23187 or CsA treatment: FR3T3, CV-1 and PC12 cells, A23187 1 μg/ml, CsA 100 ng/ml
Method: We examined whether elevated intracellular Ca^++ affects JNK activation in other cells. […] Cultures of FR3T3, CV-1, PC12 and mouse thymocytes were incubated for 15 minutes in the presence of TPA (50 ng/ml, T), A23817 (1 μg/ml, A) and/or CsA (100 ng/ml), as indicated. WCE prepared from 2-4×10^5 cells for the established cell lines and 1.5×10^6 cells for primary thymocytes were incubated with GSTcJun(1-223)-GSH agarose beads. After washing, JNK activity was determined by solid-state phosphorylation assay as described above.

c-jun = test: c-Jun phosphorylation in 32P-labelled Jurkat cells (SDS-PAGE, tryptic phosphopeptide mapping); assay type: cell-based, human
Method: Jurkat cells were grown in RPMI with 10% fetal calf serum (FCS), 1 mM […], 100 μ/ml penicillin (pen), 100 μg/ml streptomycin (strep) and 250 ng/ml amphotericin (complete medium). HeLa S3, CV-1 and FR3T3 cells were grown in DMEM supplemented with 10% FCS, 100 μ/ml pen, 100 μg/ml strep. All cells were cultured at 37° C. with 5% CO2. Mouse thymocytes were prepared from 8 week old Balb/C mice by gradient centrifugation on lymphocyte separation medium (Pharmacia). The lymphocytes were cultured for 5 hours at 37° C. in RPMI+10% FCS, prior to stimulation. Jurkat cells were labelled for 90 minutes with 0.5 mCi/ml ^32P-orthophosphate (ICN Radiochemicals) in medium lacking sodium phosphate. Labelled cells were treated with TPA (Sigma) and A23187 (Calbiochem) 1 μg/ml as indicated. When used, cyclosporin A (CsA) (Sandoz) 100 ng/ml in ethanol was added 10 minutes prior to cell stimulation. Following stimulation, the labelled cells were washed twice with ice-cold PBS then lysed with RIPA buffer (10 mM Tris pH 7.5, 150 mM NaCl, 2 mM EDTA, 1% Triton-X 100, 1% DOC, 0.1% SDS) supplemented with phosphatase inhibitors (20 mM β-glycerophosphate, 10 mM p-nitro-phenylphosphate, 1 mM Na3 VO4), and protease inhibitors (10 μg/ml leupeptin, aprotonin, pepstatin and 1 mM phenylmethyl sulfonylfluoride). c-Jun was immunoprecipitated as described (Binetruy, et al., supra., 1992) and analyzed by SDS-PAGE, followed by peptide mapping (Boyle, et al., Cell, 64:573-584, 1991; Lin, et al. Cell, 70:777-789, 1992). Ha-Ras was immunoprecipitated with Y13-259. Ha-Ras bound nucleotides were extracted and analyzed as described by Satoh, et al., (Proc. Natl. Acad. Sci., USA, 15:5993-5997, 1990).
Induction of c-Jun transcription and optimal stimulation of AP-1 correlate with changes in c-jun phosphorylation (Devary, et al., Cell, 71:1081-1091, 1992). The effect of TPA and A23187 on c-Jun phosphorylation in Jurkat cells was examined. To elevate c-Jun expression, Jurkat cells were transfected with a c-Jun expression vector. The cells were labelled with ^32P and c-Jun was immunoprecipitated from cells subjected to various stimuli and analyzed by SDS-PAGE (FIG. 12A). Jurkat cells (10^6 cells per lane) were transfected with 0.5 μg of a SRα-cJun expression vector and 24 hours later were labeled for 3 hours with ^32P-orthophosphate (1 mCi/ml). After 15 minutes, treatment with 50 ng/ml TPA (T), 1 μg/ml A23187 (A) and 100 ng/ml CsA, either alone or in combination, as indicated, the cells were lysed in RIPA buffer and c-Jun was isolated by immunoprecipitation and analyzed by SDS-PAGE. The c-Jun bands are indicated.
c-Jun phosphorylation was further analyzed by two-dimensional phosphopeptide mapping (FIG. 12C). This analysis included all the isoforms of c-Jun. All of the c-Jun specific protein bands shown in FIG. 12A, isolated from equal numbers of cells, were excised from the gel and subjected to tryptic phosphopeptide mapping. Shown is a typical result (this experiment was repeated at least three times). N-nonstimulated cells; T-cells treated with 50 ng/ml TPA; T/A: cells treated with 50 ng/ml TPA and 1 μg/ml A23187; T/A+CsA: cells treated with T/A and 100 ng/ml CsA. a,b,c,x and y correspond to the various tryptic phosphopeptides of c-Jun, previously described by Boyle, et al., (Cell, 64:573-584, 1991) and Smeal, et al., (Nature, 354:494-496, 1991). T1 and T2 correspond to the minor phosphorylation sites; Thr91, 93 and 95 (Hibi, et al., Genes & Dev., 7:000, 1993).

| Compound | MEK activity, effect of A23187 or CsA (MEK) | JNK activity, effect of A23187 or CsA treatment (JNK) | N-terminal c-Jun phosphorylation, costimulation with TPA (c-jun; A23187 1 μg/ml plus TPA 50 ng/ml) | phosphorylated c-Jun migration, costimulation with TPA (c-jun; A23187 1 μg/ml plus TPA, 15 minutes) | MEK activity, TPA treatment (MEK; Jurkat cells or mouse thymocytes) | JNK activity, TPA alone (JNK; CV1 and FR3T3 cells, TPA 50 ng/ml, 15 minutes) | phosphorylated c-Jun migration on SDS-PAGE, agent alone (c-jun; Jurkat transfected with c-Jun vector, TPA 50 ng/ml, 15 minutes) | phosphorylation of N-terminal sites Ser63 and Ser73 of c-Jun (phosphopeptide map), agent alone (c-jun; Jurkat, TPA 50 ng/ml) | N-terminal c-Jun phosphorylation, CsA added to TPA+A23187 (c-jun; CsA 100 ng/ml) | phosphorylated c-Jun migration, CsA added to TPA+A23187 (c-jun; CsA 100 ng/ml, 15 minutes) |
| --- | --- | --- | --- | --- | --- | --- | --- | --- | --- | --- |
| CNc1ccc2oc(C[C@H]3O[C@@]4(CC[C@H]3C)O[C@H]([C@H](C)C(=O)c3ccc[nH]3)[C@H](C)C[C@H]4C)nc2c1C(=O)O [A23187] | had no effect on either activity | In none of these cells was JNK activity affected | strongly enhanced | enhanced this effect | – | – | – | – | – | – |
| CCCCCCCCCCCCCC(=O)O[C@@H]1[C@@H](C)[C@@]2(O)[C@@H](C=C(CO)C[C@]3(O)C(=O)C(C)=C[C@@H]23)[C@H]2C(C)(C)[C@]12OC(C)=O [TPA] | – | – | – | – | fully stimulated | weakly stimulated | induced the appearance of slower migrating bands | increased phosphorylation of the N-terminal sites | – | – |
| cyclosporin A [CsA] | had no effect on either activity | In none of these cells was JNK activity affected | – | – | – | – | – | – | prevented the enhancement of N-terminal phosphorylation | reduced the Ca^++ effect |
